{"source": "patent US20120316203A1", "about": "“Compositions and Methods for Inhibition of Cancers” (THE OHIO STATE UNIVERSITY RESEARCH FOUNDATION, priority 2009, published 2012)", "key": {"[1]": {"test_system": "pSTAT3 (Tyr705 and Ser727), cleaved caspase-3 and PARP in A2780, A549, HepG2, MCF-7, HCT-116 cells", "assay": "Western blot of STAT3 signaling and apoptotic markers in cancer cells", "type": "cell-based, human", "settings": "10 μM, 24 h", "experimental": "(§1) Cells were grown in RPMI 1640 medium and treated with DMSO (control) or HO-3867 ([…]). Equal volumes of DMSO (0.1% v/v) were present in both groups. After treatment, cell lysates were prepared in nondenaturing lysis buffer (10 mM Tris-HCl (pH 7.4), 150 mM NaCl, 1% Triton X-100, 1 mM EDTA, 1 mM EGTA, 0.3 mM phenylmethylsulfonyl fluoride, 0.2-mM sodium orthovanadate, 0.5% NP-40, 1 lag/ml aprotinin, and 1 lag/ml leupeptin). Cell lysates were centrifuged at 10,000 RPM for 20 min at 4° C., and the supernatant was separated. The protein concentration in the lysates was determined using a Pierce detergent-compatible protein assay kit. For Western blotting, 25 to 50 lag of protein lysate per sample was denatured in 2× sample buffer and subjected to SDS-PAGE on a 10 or 12% Tris-glycine gel. The separated proteins were transferred to a PVDF membrane and then the membrane was blocked with 5% nonfat milk powder (w/v) in 10 mM Tris, 100 mM NaCl, 0.1% Tween 20 for 1 h at room temperature or overnight at 4° C. The membranes were incubated with the primary antibodies described above. The bound antibodies were detected with horseradish peroxidase (HRP)-labeled sheep anti-mouse IgG or HRP-labeled donkey anti-rabbit IgG (Amersham) using an enhanced chemiluminescence detection system (ECL Advanced Kit). Protein expression was determined using Image Gauge version 3.45."}, "[2]": {"assay": "Body weight and diet consumption of tumor-bearing animals", "type": "in vivo", "settings": "25, 50, and 100 ppm in feed, 5 weeks", "experimental": "(§2) Cultured A2780 cancer cells (2×10^6 cells in […] of PBS) were s.c. injected into the back of 6-week-old BALB/c nude mice from the National Cancer Institute. Five to 7 days later, when the tumors reached 3 to 5 mm in diameter, the mice were divided (n=9/group) in a manner to equalize the mean tumor diameter among the groups. The control group was given a normal diet (no treatment), whereas the experimental groups were treated using the DAP compounds mixed with the animal feed (Harlan Teklad) at three different levels (25, 50, and 100 ppm). The doses were chosen based on an initial dose-response study optimized to produce an observable effect on tumor growth. The size of the tumor was measured twice per week using a digital Vernier caliper. The tumor volume was determined from the orthogonal dimensions (d1, d2, d3) using the formula (d1×d2×d3)×π/6. Thirty five days after the beginning of HO-3867 treatment, the mice were sacrificed and the tumors were resected. The tumor tissues were then subjected to immunoblot analysis.\nThe mice were treated with HO-3867 and the tumor size as measured twice weekly for 5 weeks. […] We also measured the body weight and diet consumption of tumor-bearing animals."}, "[3]": {"test_system": "A2780 xenograft tumor tissues", "assay": "FAS/FAK and VEGF levels in xenograft tumor tissues (immunoblot, immunohistochemistry)", "type": "in vivo, BALB/c nude mice", "experimental": "A2780 cells (5×10^6 cells in 60 μl of PBS) were subcutaneously (s.c.) injected into the back of 6-week-old BALB/c nude mice from the National Cancer Institute. On the 5th day when the tumor size reached approximately 2 to 4 mm, the control groups was supplemented a normal diet (no treatment) while the experimental groups were treated using the DAP compounds mixed with the animal feed ([…]). The doses were chosen based on an initial dose-response study optimized to produce an observable effect on tumor growth. The tumor tissues were then subjected to immunoblotting and immunohistochemistry.\nTumor tissues were fixed in formalin and embedded in paraffin. Sections (6-μm thick) were obtained and used for hematoxylin and eosin staining. For immunofluorescence staining, the tissue sections (8-μm thick) were serially rehydrated in 100%, 95%, and 80% ethanol after deparaffinization with xylene. Slides were kept in steam for 30 min and then washed in PBS (pH 7.4) three times for 5 min each. Tissue sections were incubated with 2% goat serum and 5% bovine serum albumin in PBS to reduce nonspecific binding. The sections were then incubated for 4 h with an anti-mouse anti-FAS, or anti-VEGF. The sections were then incubated with secondary antibodies (1:1000 dilutions) conjugated to horseradish peroxidase (HRP)-labeled sheep anti-mouse IgG or HRP-labeled donkey anti-rabbit IgG (Amersham Pharmacia Biotech). The tissue slides were visualized using a Nikon fluorescence microscope."}, "[4]": {"test_system": "STAT3 and apoptotic markers in HSMC", "assay": "Western blot of STAT3 signaling and apoptotic markers in HSMC", "type": "cell-based, human", "settings": "10 μM, 24 h", "experimental": "as §1"}, "[5]": {"test_system": "A2780 human ovarian tumor xenograft", "assay": "Ovarian cancer tumor xenografts in mice, tumor growth", "type": "in vivo, BALB/c nude mice", "settings": "25, 50, and 100 ppm in feed, 5 weeks; dose-dependent, 50 and 100 ppm more effective", "experimental": "as §2"}, "[6]": {"test_system": "A2780 and SKOV3 cells", "assay": "Cell-migration (wound-healing) assay", "type": "cell-based, human", "settings": "10 μM", "experimental": "Cell-migration assay was performed by wound-healing method. Cells were plated at equal density and grown to 90% confluence. Wounds were created using a sterile pipette tip. Cells were then rinsed with medium and replaced with the fresh medium and incubated with HO-3867 (10 μM). Areas of wound were marked and photographed at various time-points with a phase-contrast microscope. Cell-invasive assay was measured by an in vitro Boyden chamber assay. Briefly, 1×10^5 cells in 0.5 ml of serum-free RPMI 1640 medium were added to the wells of 8-μm-diameter pore membrane Boyden chambers, either coated with (BD Biosciences, Franklin Lake, N.J.) or without (Corning, Corning, N.Y.) Matrigel. Cells were allowed to invade for 24 hours. Cells that had not penetrated the filters were removed by scrubbing with cotton swabs. Chambers were fixed in 100% methanol for 2 min, stained in 0.5% crystal violet for 2 min, rinsed in PBS and examined using a bright-field microscope. Values for invasion were obtained by counting five fields per membrane and represented as the average of three independent experiments performed over multiple days."}, "[7]": {"test_system": "A2780 cells", "assay": "Cell viability by MTT assay, A2780 cells", "type": "cell-based, human", "settings": "24 hours, dose series", "experimental": "Cell viability was determined by a colorimetric assay using MTT. In the mitochondria of living cells, yellow MTT undergoes a reductive conversion to formazan, producing a purple color. Cells, grown to […] confluence in 75-mm flasks, were trypsinized, counted, seeded in 96-well plates with an average population of 7,000 cells per well, incubated overnight, and then treated with curcumin, H-4073, or HO-3867 for 24 hours. All experiments were done using eight replicates and, repeated at least thrice."}, "[8]": {"settings": "50 or 100 ppm in feed, dose-dependent"}}}
{"compound": "CC1(C)C=C(CN2C/C(=C\\c3ccc(F)cc3)C(=O)/C(=C/c3ccc(F)cc3)C2)C(C)(C)N1O", "note": "[HO-3867, 1-[(1-oxyl-2,2,5,5-tetramethyl-2,5-dihydro-1H-pyrrol-3-yl)methyl]-(3E,5E)-3,5-bis(4-fluorobenzylidene)piperidin-4-one]", "values": [{"measurement": "Tyr705 and Ser727 pSTAT3 levels in cancer cells", "setting": "[1]", "result": "significantly attenuated"}, {"measurement": "activated caspase-3 and PARP in cancer cells", "setting": "[1]", "result": "significant elevation"}, {"measurement": "gross signs of toxicity (body weight, diet consumption)", "setting": "[2]", "result": "did not show any gross signs of toxicity"}, {"measurement": "SREBP1, MMP-2, and VEGF in xenografted tumor tissues", "setting": "[3]; [8]", "result": "clear down-regulation"}, {"measurement": "expression of FAS and FAK in xenografted tumor tissues", "setting": "[3]; [8]", "result": "decreased expression"}, {"measurement": "protein levels of FAS and VEGF by immunocytochemistry in tumor-bearing mice", "setting": "[3]; mouse, in vivo", "result": "significantly inhibited"}, {"measurement": "activation of STAT3 or apoptotic markers in HSMC", "setting": "[4]", "result": "did not induce any significant change"}, {"measurement": "tumor volume", "setting": "[5]", "result": "significant reduction"}, {"measurement": "cell migration", "setting": "[6]; 24 hours, versus untreated cells", "result": "significant inhibition"}, {"measurement": "VEGF-induced migration", "setting": "[6]; 24-h incubation, versus VEGF group", "result": "significantly inhibited"}, {"measurement": "cytotoxicity, viability of A2780 cells", "setting": "[7]", "result": "significantly higher toxicity when compared with curcumin"}]}
